According to patent US20260306640A1, “TECHNOLOGIES TARGETING CELL STATES” (Auron Therapeutics, Inc., priority 2023, published 2026):
Like-named read-outs stand apart in the source and are kept apart here.

How the values were obtained:
MOLM-13 cells = assay: Cell growth inhibition, AML cell line MOLM-13 (CyQuant, day 7); type: cell-based; details: for GI50: Homo sapiens
CD86 = CD86 by flow cytometry (monocytic differentiation), MOLM-13 cells, 48 hours; type: cell-based; details: FIG. 2 (C)
Experimental: (§1) FIG. 2. Provided compounds can provide various activities. (A): Provided technologies can reduce KAT2A and KAT2B levels and histone acetylation levels. […] Cell count data after 8 days of treatment with compound 22 relative to DMSO control are presented as examples to confirm inhibition. […] (C): Provided technologies can modulate cell states and induce differentiation. […] EC50=0.3 nM.

KAT2B [1] = target: T1, KAT2B (Homo sapiens, UniProt Q92831); assay: Western blot of KAT2B level in acute myeloid leukemia MOLM-13 cells, 48 h; type: cell-based; parameters: degrader, Western blot; details: FIG. 2 (A)
Experimental: as §1

KAT2B [2] = target: T1, KAT2B; assay: KAT2B degradation, Western Blot, MOLM-13 cells; type: cell-based; parameters: degrader, Western blot
Experimental: MOLM-13 cells were maintained at 37° C. in 5% CO2 and 90% humidity in RPMI 1640 supplemented with 20% fetal bovine serum (FBS) and 1× penicillin/streptomycin. Cells were plated in full media at 1-2 million cells/2 mL in a 6-well tissue culture treated plate with or without compounds for 24 h at 37° C. in 5% CO2.
MOLM-13 cells or NCI-H1048 cells were washed with PBS, then lysed with RIPA buffer containing 1×protease and phosphatase inhibitors (SantaCruz Biotechnologies Cat #sc-24948A). Protein was isolated by centrifugation at 12,000×g for 10 minutes at 4° C. and supernatant was collected. Protein was quantified via Bradford assay. Samples were diluted to 4 μg lysate in 16 μL RIPA buffer and then 4 μL of Jess Sample Buffer. Samples were heated at 95° C. for 5 minutes. Samples were loaded onto 12-230 kDa Jess™ Separation Module, 8×25 capillary cartridges (SM-W004, Biotechne). Antibodies loaded were: Primary antibody for KAT2A (GCN5L2 (C26A10) Rabbit mAb (3305, CST)) and for KAT2B (PCAF (C14G9)) Rabbit mAb (3378, CST) at 1:1000 and Anti-Rabbit Detection Module for Jess™ (Cat No #DM-001, Biotechne). Signal was detected by chemiluminescence.
DC50 values were determined from percent reduction of protein as compared to the DMSO control.

epithelial GSEA = assay: Epithelial GSEA in NCI-H1048 tumors of treated mice; type: in vivo; details: tumors treated as compared to vehicle; FIG. 1 (G)
Experimental: FIG. 1. Provided compounds can provide various activities including inhibiting tumor growth in vivo. (A): Provided compounds can inhibit tumor growth in vivo. Nude Balb/c mice were inoculated with NCI-H1048 cells in Matrigel. Tumors were allowed to grow up to about 200 mm^3 and mice were then randomized into two groups. Mice were dosed intraperitoneally (i.p.) once per week with vehicle or 30 mg/kg compound 22. Tumor size was measured every three to four days and mice were sacrificed once vehicle tumors reached 2000 mm^3. Error bar is SEM. Dosing started at day 17 post tumor inoculation. (B): Provided technologies can reduce KAT2A and KAT2B levels and histone acetylation levels. […] Vehicle is DMSO. […] Cell count data relative to DMSO control after 8 days of treatment with compound 22 are presented as examples to confirm inhibition. GI50=6 nM. (D): Provided technologies can inhibit tumor growth in vivo. Nude balb/c mice inoculated with H1048 tumors were dosed intraperitoneally once per week (qw i.p.) with vehicle (HbCD) or compound 22. Average tumor volumes+/−SEM from 6 mice are represented. […] See also (A). […] Certain body weights relative to starting weight are presented as examples to confirm tolerability and safety. (F): Provided technologies can reduce KAT2A and KAT2B levels and histone acetylation levels in tumor in vivo. […]

LASCPC-01 cells = assay: Cell viability (Cell Titer Glo, 7 days), LASCPC-01 cells; type: cell-based; details: 168 h, Cell Titer Glo relative to DMSO control after 7 days, FIG. 3 (B)
Experimental: FIG. 3. Provided compounds can provide various activities. (A): Provided technologies can reduce KAT2A and KAT2B levels and histone acetylation levels. […] Cell viability (Cell Titer Glo) data relative to DMSO control after 7 days of treatment with compound 22 are presented as examples to confirm inhibition. GI50=5 nM. (C): Provided technologies can modulate cell states and induce differentiation. […] (D): Provided technologies can reduce KAT2A and KAT2B levels and histone acetylation levels including in neuroendocrine prostate cancer primary patient organoid. […] Concentrations are nM. […] Cell viability data relative to DMSO control after 21 days of treatment with compound 22 are presented as examples to confirm inhibition. GI50=3 nM. (F): Provided technologies can modulate cell states and induce differentiation.

T1 sequence (Q92831 whole entry): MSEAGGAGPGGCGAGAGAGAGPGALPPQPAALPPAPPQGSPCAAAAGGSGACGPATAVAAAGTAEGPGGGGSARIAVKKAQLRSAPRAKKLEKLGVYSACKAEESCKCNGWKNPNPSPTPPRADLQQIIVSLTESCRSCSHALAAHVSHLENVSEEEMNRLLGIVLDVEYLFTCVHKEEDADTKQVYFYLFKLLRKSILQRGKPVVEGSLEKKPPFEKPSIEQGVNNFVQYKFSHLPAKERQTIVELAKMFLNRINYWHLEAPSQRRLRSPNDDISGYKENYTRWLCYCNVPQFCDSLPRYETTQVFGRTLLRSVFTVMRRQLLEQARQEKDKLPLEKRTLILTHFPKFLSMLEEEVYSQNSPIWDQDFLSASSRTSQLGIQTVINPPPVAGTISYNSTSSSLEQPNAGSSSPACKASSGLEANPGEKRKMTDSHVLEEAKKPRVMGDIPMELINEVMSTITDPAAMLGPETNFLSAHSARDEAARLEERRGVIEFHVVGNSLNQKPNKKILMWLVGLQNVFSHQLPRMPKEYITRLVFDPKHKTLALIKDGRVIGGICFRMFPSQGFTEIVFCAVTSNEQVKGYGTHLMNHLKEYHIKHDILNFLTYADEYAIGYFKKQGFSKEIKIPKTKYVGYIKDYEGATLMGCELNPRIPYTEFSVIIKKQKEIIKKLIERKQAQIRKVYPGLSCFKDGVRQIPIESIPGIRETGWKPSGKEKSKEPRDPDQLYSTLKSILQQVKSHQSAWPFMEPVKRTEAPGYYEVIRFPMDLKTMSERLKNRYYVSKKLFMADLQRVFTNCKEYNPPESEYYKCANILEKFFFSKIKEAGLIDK

In the case of CN1C[C@H](Nc2cnn(C)c(=O)c2Br)C[C@H](c2ccc(C(=O)N3CCC(CN4CCN(c5ccc6c(c5)CN(C5CCC(=O)NC5=O)C6=O)CC4)CC3)cc2)C1 (stereo partly drawn) [Compound 22, 3-(5-(4-((1-(4-((3R,5R)-5-((5-bromo-1-methyl-6-oxo-1,6-dihydropyridazin-4-yl)amino)-1-methylpiperidin-3-yl)benzoyl)piperidin-4-yl)methyl)piperazin-1-yl)-1-oxoisoindolin-2-yl)piperidine-2,6-dione], the GI50 (MOLM-13 cells; 168 h, MOLM-13, day 7, CyQuant, read-out: MOLM13 GI50) is reported as 2.9 nM, the GI50 (MOLM-13 cells; MOLM-13, comparison table with Ref-1, read-out: Growth GI50) is reported as 1.2 nM and the cell growth (MOLM-13 cells; MOLM-13 cells, FIG. 2) is reported as “inhibit cell growth”. The monocytic differentiation (CD86; CD86 flow cytometry at 48 hours) was “monocytic differentiation was observed”, the EC50 (CD86; Homo sapiens, flow cytometry at 48 hours) was 0.3 nM and the “reduction of KAT2B level” value (KAT2B [1]) was “confirm such reduction”. For the same compound, the EC90 (KAT2B [2]; 24 h, MOLM-13, KAT2B, read-out: DC90 (the source's name)) was 3.6 nM, the DC50 (KAT2B [2]; MOLM-13, KAT2B) was 0.43 nM and the KAT2B levels (KAT2B [2]; MOLM-13 cells, FIG. 2) was “potently reduce KAT2A and KAT2B levels”. The “epithelial GSEA” value (epithelial GSEA) was “significant upregulation” and the GI50 (LASCPC-01 cells) was 5 nM.
